In a melting point compilation (Tetko et al.; mined from patent text by program, amines drawn as free bases though some values may be those of a salt) one finds melting point data, which are given here for 90 molecules.

`CCOc1nc2ccccc2nc1N(C)C(=O)N1CCN(c2cc(OC)cc(OC)c2)CC1` had a melting point of 159 to 161 °C.

Take `CN(C)c1ccc(Br)cn1`: the melting point lay within 39 to 41 °C.

Regarding `C=CCn1nc(C(=O)NC)cc1OCCCN1CCN(c2cccc3sccc23)CC1`, the melting point fell in the range of 138 to 140 °C.

Consider `Nc1nc2c(c(N3CCN(CCc4ccccc4)CC3)n1)Cc1ccccc1-2`, for which the melting point was 122 to 124 °C.

`COc1ccc(C(C)=NOCc2cccc(F)c2)cc1F` yielded a melting point of 67 °C.

In the case of `CC(C)(C)c1cc(Cn2nc(-c3ccccc3)oc2=O)cc(C(C)(C)C)c1O`, the melting point turned out to be 164 °C.

`CC(NC(=O)CN1CCCC1=O)C(=O)N1CC(=O)NC1(C)C` (stereo not given): the melting point was in the range of 198 to 200 °C.

In the case of `O=C(O)CS(=O)(=O)Nc1ccc(F)cc1F`, the melting point was 110 to 112 °C.

Take `CCCc1cc2c(=O)cc(C(=O)O)[nH]c2cc1OCCCOc1c(CCC)cc(C(C)=O)c(O)c1CCC`: the melting point fell in the range of 128 to 131 °C.

Regarding `Cc1ccc(C(=O)c2cc(-c3ccccc3)c(N3CCOCC3)s2)cc1`, the melting point is 198 °C.

As for `CN1C(=O)C(c2ccc(OC(F)F)cc2)(c2cccc(C3CC(O)C3)c2)N=C1N` (stereo not given), the melting point was 186 to 190 °C.

As to `O=C1CCc2nc(-c3ccccc3)ccc21`, the melting point was 177 to 178 °C.

The molecule `CC1(C)CCCC2(C)CC(O)CCC12` (stereo not given) came in with a melting point of 53 to 54 °C.

Turning to `O=C1C=C(Cc2ccccc2)CC1`, the melting point was in the range of 32 to 33 °C.

In turn, `Nc1cc(-c2ccc(Cl)cc2)on1` had a melting point of 141 to 143 °C.

In turn, `ClCc1nc2cc(Br)ccc2o1` displayed a melting point of 63 to 65 °C.

With `COc1cc(C(=O)O)c(N)cc1OCc1ccccc1`, the melting point is 159 to 161 °C.

Consider `CCC(Oc1ccc(C(C)(C)CC)cc1C(C)(C)CC)C(=O)Nc1cc(Cl)c2[nH]c(=O)[nH]c2c1O` (stereo not given), for which the melting point was in the range of 201 to 204 °C.

`O=C(O)/C=C/c1ccc(N2CCC(=O)CC2)cc1` displayed a melting point of 215 °C.

In turn, `CC1=C(C(=O)OC(C)C)C(c2cccc([N+](=O)[O-])c2)N(C(=O)NCc2ccccc2)C(=O)N1` (stereo not given) registered a melting point of 184 to 185 °C.

As to `CCCOCCOc1ccc(COc2ccc3c(c2)C=C(C(=O)Nc2ccc(CN(C)C4CCOCC4)cc2)CCS3(=O)=O)cc1OCC`, the melting point fell in the range of 146 to 147 °C.

`C=Cc1c2c(c(C)c(C)c1N1CCN(c3ccc(OC)cc3)CC1)OC(C)(C)C2=O` came in with a melting point of 147 to 148 °C.

Take `NC1=NN(c2ccc(OCc3ccccc3)cc2)CC1`: the melting point was in the range of 148 to 149 °C.

With `CN1CCC(OC2c3ccccc3CCn3cc(-c4ccc(Br)cc4)nc32)CC1` (stereo not given), the melting point is 142 °C.

The molecule `COc1cccc(SCCC(=O)O)c1` gave a melting point of 39 to 42 °C.

`O=C(/C=C/c1cccc(S(=O)(=O)N2CCN(C/C=C/c3ccccc3)CC2)c1)NO` had a melting point of 178 °C.

`OCc1cc(OCc2ccc3ccccc3n2)no1` registered a melting point of 111 to 112 °C.

`COc1cc(COc2cc(CO)n(-c3ccccc3)n2)ccc1OCc1nc(-c2ccco2)oc1C` had a melting point of 106 to 107 °C.

The molecule `COC(=O)OC1CCC2C3CCC4=CC(=O)CCC4(C)C3CCC12C` (stereo not given) yielded a melting point of 140 to 141 °C.

In the case of `COc1ccc(OC)c(-c2cn(C)cc(C#N)c2=O)c1`, the melting point was 209 to 211 °C.

In turn, `CS(=O)(=O)c1ccc(Br)cc1[N+](=O)[O-]` came in with a melting point of 175 to 177 °C.

In turn, `CCOc1cc(C#N)ccc1C(=O)Nc1cc(Cl)c(Cl)cc1N` yielded a melting point of 195 to 198 °C.

With `CCN(O)C(=O)CCc1ccc2c(c1)C(=O)c1ccccc1CO2`, the melting point turned out to be 120 °C.

Regarding `COC(=O)CC(=O)c1cc(F)c(OC)c(F)c1`, the melting point lay within 64 to 67 °C.

`Clc1cc(Nc2nnc(-c3ccc4nonc4c3)s2)ccc1Br` gave a melting point of 326 to 327 °C.

`CCCCCNC(=O)Nc1ccccc1C(=O)NCCC1CCN(C(c2ccccc2)c2ccccc2)CC1` came in with a melting point of 124 to 127 °C.

For `Oc1cccnc1Sc1cccc(Br)c1`, the melting point was 125 to 126 °C.

As to `CCCCCCCCCCCCCCCCCC(=O)Nc1ccc(NC(=O)NS(=O)(=O)c2ccc3ccccc3c2)cc1`, the melting point stood at 192 °C.

With `O=C(Nc1cccc2c1C(=O)N(CCN1CCN(c3ccncc3)CC1)C2=O)c1ccc(Cl)s1`, the melting point was found to be 168 °C.

`CCOC(=O)c1sc(N2CCNC2=O)nc1C` returned a melting point of 197 to 199 °C.

`Cn1nnnc1C(/C=C/[C@@H]1C[C@@H](O)CC(=O)O1)=C(c1ccc(F)cc1)c1ccc(F)cc1`: the melting point was in the range of 104 to 106 °C.

Molecule `CCOC(=O)Nc1ccc(OC)c(OC)c1C=O` came in with a melting point of 86 to 88 °C.

In turn, `COc1cc(Cc2nccc3c(OCc4ccccc4)cc(OCc4ccccc4)cc23)cc(OC)c1OC` came in with a melting point of 158 to 160 °C.

For `COc1cccc(CNC(=O)c2cc3ccccc3c(=O)[nH]2)c1`, the melting point lay within 206 to 210 °C.

Consider `O=[N+]([O-])c1nccn1C1CCCC1O` (stereo not given), for which the melting point is 109 °C.

`CC(C)OC(=O)c1cc(-c2nn(C)c(C(F)(F)F)c2C=O)c(F)cc1Cl`: the melting point is 90 °C.

For `CC(C)c1cccc(C(C)C)c1NC(=O)C(Cc1ccccc1)NC(=O)CCCCl` (stereo not given), the melting point lay in the range of 212 to 215 °C.

On to `NS(=O)(=O)c1ccc(-n2nc(C(F)(F)F)c3c2-c2ccccc2CC3)cc1`, for which the melting point lay within 257 to 258 °C.

With `O=C1NCCc2[nH]c3ccccc3c21`, the melting point was in the range of 212 to 215 °C.

For `Cc1ccc(S(=O)(=O)c2ccc(Cl)c(NC(=O)N[C@@H](Cc3ccc(NC(=O)c4c(Cl)cccc4Cl)cc3)C(=O)O)c2)cc1`, the melting point came to 241 °C.

Take `COC(=O)C1=C(C)NC(C)=C(C(=O)OC)C1c1cc([N+](=O)[O-])ccc1OC/C=C/CCl`: the melting point fell in the range of 206 to 207 °C.

As to `CON(C)Cc1nc2c(N)nc3cc(OCc4ccccc4)ccc3c2n1CC1CCOCC1`, the melting point is 159 to 161 °C.

With `N#Cc1ccc2sc3c(c2c1)CC(CO)CC3` (stereo not given), the melting point lay within 165 to 166 °C.

Molecule `CCCCOCCOc1ccc(-c2cc3c4c(c2)OCCN4CCCC(C(=O)O)=C3)cc1` came in with a melting point of 205 to 209 °C.

`O=C(NCCCn1cncn1)c1ccco1` showed a melting point of 63 to 66 °C.

On to `O=C(NNc1ccc([N+](=O)[O-])cc1)C(F)(F)F`, for which the melting point fell in the range of 115 to 117 °C.

Consider `BrCCCCCCCCCCCCN1CCN(c2ccccc2)CC1`, for which the melting point lay within 26 to 28 °C.

`Cc1ccc2sc(-c3ccccn3)nc(=O)c2c1` yielded a melting point of 220 to 221 °C.

In the case of `CCCc1c(OCCCCCc2c(Cl)c(Cl)cc(OC)c2OC)ccc(C(=O)OC)c1O`, the melting point fell in the range of 113 to 115 °C.

Turning to `O=C1C2CCCC2=Nc2ccc(F)cc2N1Cc1ccccc1` (stereo not given), the melting point was 158 to 159 °C.

As for `O=C1CCCC(c2ccc(F)cc2)CN1` (stereo not given), the melting point fell in the range of 158 to 160 °C.

`OCc1cc(N2CCOCC2)ncn1` registered a melting point of 138 °C.

`CS(=O)(=O)c1ccc(Oc2ccc3[nH]c(C4=NCC(CC(=O)O)S4)cc3c2)cn1` (stereo not given) showed a melting point of 205 to 208 °C.

For the molecule `Cn1c(-c2cccnc2)cc(=O)n(C)c1=O`, the melting point lay within 120 to 122 °C.

As to `O=C(NCCO)c1cccc(-c2cccc3oc(Cc4cccc(C(F)(F)F)c4)cc23)c1`, the melting point fell in the range of 135 to 136 °C.

For the molecule `COC(=O)Cc1cn(Cc2ccccc2)nc1O`, the melting point fell in the range of 118 to 119 °C.

In turn, `CN(C)c1nc(N)nc2nc[nH]c12` came in with a melting point of 254 to 256 °C.

`Nc1ccc(Oc2c(NCc3ccccc3)cc(C(=O)O)cc2S(N)(=O)=O)cc1`: the melting point came out at 272 °C.

In the case of `Cc1ccc2nc(C(=O)Nc3ccccn3)[nH]c2c1`, the melting point was 230 °C.

`COc1ccc(-c2nc3cc(C(C(C)C)n4ccnc4)ccc3[nH]c2=O)cc1OC` (stereo not given) showed a melting point of 243 °C.

In turn, `O=C(O)Cn1cc(Cc2nc3c(F)c(F)cc(F)c3s2)c2cccc(Cl)c21` yielded a melting point of 228 to 230 °C.

`CCOC(=O)c1nccc(N)n1` showed a melting point of 101 to 104 °C.

In turn, `CC(=O)c1cc(C=O)c2occc2c1` showed a melting point of 91 to 93 °C.

Regarding `CC1(C)CCSc2ccc(Br)cc21`, the melting point was determined as 51 °C.

The molecule `COC(=O)[C@H](Cc1ccc([N+](=O)[O-])cc1)NC(=S)c1c(C)cccc1Cl` had a melting point of 150 to 153 °C.

In turn, `CC12CCC(C1)C1(C)Oc3ccc(C(=O)COc4ccc(C(=O)O)c(O)c4)cc3C21C` (stereo not given) showed a melting point of 186 to 188 °C.

With `O=C(O)Cc1cccc(NC(=O)NC2C(=O)N(CC(=O)N3CCCC3)c3ccccc3N(c3ccccc3F)C2=O)c1` (stereo not given), the melting point was in the range of 197 to 199 °C.

With `CCCSc1ncc(C(=O)N[C@H](C(=O)O)[C@@H](C)CC)n1Cc1ccccc1Cl`, the melting point lay within 156 to 158 °C.

`CC1(C)CCC(C)(C)c2cc(CCCC(=O)O)ccc21` registered a melting point of 99 °C.

In the case of `Cc1nc(-c2cc(Cl)ccc2Cl)n2c1nnc1ccc(N3CCCCC3)cc12`, the melting point was in the range of 158 to 160 °C.

The molecule `CCNc1nc(Nc2ccccc2C)c2ccccc2n1` gave a melting point of 127 to 129 °C.

`O=C(O)CCCCCCC1=CC(O)CC1=O` (stereo not given) gave a melting point of 47 to 48.5 °C.

With `Cc1nn(C)c(Cl)c1S(=O)(=O)Nc1ccc(Cl)cc1C(=O)Nc1ccc(S(=O)(=O)N2CCSCC2)cc1`, the melting point lay in the range of 215 to 216 °C.

Molecule `CC(=O)NC[C@H]1CN(c2ccc(N3CCC4(CC3)COCO4)c(F)c2)C(=O)O1` returned a melting point of 142 to 144 °C.

The molecule `COC(=O)CCCCCNC(=O)C(CSC(C)=O)Cc1ccccc1` (stereo not given) gave a melting point of 50 to 54 °C.

Molecule `CO[C@]1(c2csc(Sc3ccc4c(c3)CC/C4=N\O)c2)CCO[C@@H]1C` (racemic) yielded a melting point of 140 to 142 °C.

As for `Cc1cc(Oc2c(Cl)cc(C(F)(F)F)cc2Cl)n[nH]1`, the melting point lay in the range of 153 to 155 °C.

The molecule `O=C(CN1CCC(Cc2ccc(F)cc2)CC1)Nc1ccc2[nH]cnc2c1` returned a melting point of 204 °C.

As to `Cc1ccc(-c2ccc(S(N)(=O)=O)cc2)n1-c1ccc(F)cc1`, the melting point lay within 147 to 148 °C.

Turning to `Oc1ccc(OC[C@@H](O)CNCCc2ccc(-n3c(-c4ccc(C5CCCCC5)cc4)nc4cccnc43)cc2)cc1`, the melting point lay in the range of 100 to 102 °C.

One may read the melting point as the temperature of the solid-liquid transition.
